# Test results taken from patent publication US5597823A, “Tricyclic substituted hexahydrobenz [e]isoindole alpha-1 adrenergic antagonists” (priority 1995, dated 1997).
# Counter-ions that a name gives are not always drawn.
# Target: T1, α-1A adrenoceptor (dog prostate) (Canis lupus, UniProt A0A8I3NK63)
# T1 sequence (A0A8I3NK63 1-466): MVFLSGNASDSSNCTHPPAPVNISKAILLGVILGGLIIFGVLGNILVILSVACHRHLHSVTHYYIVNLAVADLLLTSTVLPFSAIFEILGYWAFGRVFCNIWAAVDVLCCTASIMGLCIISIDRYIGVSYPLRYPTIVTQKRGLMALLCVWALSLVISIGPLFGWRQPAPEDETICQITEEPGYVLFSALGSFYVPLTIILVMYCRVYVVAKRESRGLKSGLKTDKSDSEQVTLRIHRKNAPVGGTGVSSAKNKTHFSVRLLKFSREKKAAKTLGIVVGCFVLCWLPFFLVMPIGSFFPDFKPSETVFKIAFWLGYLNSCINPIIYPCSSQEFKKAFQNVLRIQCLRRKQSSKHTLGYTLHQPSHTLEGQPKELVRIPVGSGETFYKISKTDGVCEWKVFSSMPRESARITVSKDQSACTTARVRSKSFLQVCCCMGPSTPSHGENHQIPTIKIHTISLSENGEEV
# Test: Functional antagonism: phenylephrine (PE)-induced contraction of canine prostate strips
# Type: cell-based
# Details: Table 2b; vs phenylephrine; Schild plot
# Description: Functional assays indicative of pharmacologically defined α-1 adrenoceptors were used to further characterize compounds. Inhibition of phenylephrine (PE)-induced contraction of canine prostate smooth muscle can be correlated with α-1A adrenoceptor activation. […] For each of these models, agonist dose response curves were repeated against increasing concentrations of test agent to derive a Schild plot [log ([…]) against log (molarity of test agent)] to determine the pA2.
# Canine prostate strips were used in vitro as previously described (Hieble, J. P., Boyce, A. J. and Caine, M., Fed. Proc., 45:2609-2614 (1986)), to determine antagonist potencies against phenylephrine-induced contractions.
row,SMILES,pA2 Dog Prostate [α-1A]
1,"COc1cccc2c1CC[C@H]1CN(CCn3c(=O)[nH]c4c(sc5cc(Cl)ccc54)c3=O)C[C@@H]21 [Example 57, 3-[2-((3aR,9bR)-cis-6-Methoxy-2,3,3a,4,5,9b-hexahydro-[1H]-benz[e]isoindol-1-yl)ethyl]-[1]-7-chloro-benzothieno[3,2-d]pyrimidine-2,4(1H,3H)-dione hydrochloride]",7.43
2,"COc1cccc2c1[C@@H]1CN(CCn3c(=O)[nH]c4c([nH]c5ccccc54)c3=O)C[C@@H]1CC2 [Example 24, hydrochloride]",8.6
3,"COc1cccc2c1CC[C@H]1CN(CCn3c(=O)[nH]c4c(sc5nc(-c6ccccc6)c(-c6ccccc6)nc54)c3=O)C[C@@H]21 [Example 100, 3-[2-(cis-(3aR,9bR)-6-Methoxy-2,3,3a,4,5,9b-hexahydro-[1H]-benz[e]isoindol-1-yl)ethyl]-7,8-diphenylpyrazino[2',3':4,5]thieno[3,2-d]pyrimidine-2,4(1H,3H)-dione hydrochloride]",6.92
4,"COc1cccc2c1CC[C@H]1CN(CCn3c(=O)[nH]c4c(oc5cccnc54)c3=O)C[C@@H]21 [Example 77, 3-[2-((3aR,9bR)-cis-6-Methoxy-2,3,3a,4,5,9b-hexahydro-[1H]-benz[e]yl)ethyl]-pyrido[2',3':4,5]furo[3,2-d]pyrimidine-2,4(1H3 H)-dione hydrochloride]",9.09
5,"COc1cccc2c1CC[C@H]1CN(CCn3c(=O)[nH]c4cc5[nH]cnc5cc4c3=O)C[C@@H]21 [Example 53, 7-[2-((3aR,9bR)cis-6-Methoxy-2,3,3a,4,5,9b-hexahydro,[1H]-benz[e]isoindol-1-yl)ethyl]-imidazo[4,5-g]quinazoline-6,8(1H,5H)-dione hydrochloride]",9.25
6,"COc1cccc2c1CC[C@H]1CN(CCn3cnc4c(sc5ccccc54)c3=O)C[C@@H]21 (relative stereo) [Example 28, dihydrochloride]",7.75
7,"COc1cccc2c1CC[C@H]1CN(CCN3CNc4c(sc5ncccc45)C3=O)C[C@@H]21 [Example 70, dihydrochloride]",8.57
8,"COc1cccc2c1[C@H]1CN(CCn3c(=O)[nH]c4c(sc5ccccc54)c3=O)C[C@H]1CC2 [Example 19, hydrochloride]",6.66
9,"CCc1cccc2c1CC[C@H]1CN(CCn3c(=O)[nH]c4c(sc5cccnc54)c3=O)C[C@@H]21 [Example 113, dihydrochloride]",8.22
10,"COc1cccc2c1CC[C@H]1CN(CCn3c(=O)[nH]c4c(sc5ncncc54)c3=O)C[C@@H]21 [Example 40, 3-[2-(cis-(3aR,9bR)-6-Methoxy-2,3,3a,4,5,9b-hexahydro-[1H]-benz[e]isoindol-1-yl)ethyl]-thieno[2,3-d:4,5]dipyrimidine-2,4(1H,3H)-dione]",9.72
11,"COc1cccc2c1CC[C@H]1CN(CCn3c(=O)[nH]c4cc5ccccc5cc4c3=O)C[C@@H]21 (relative stereo) [Example 21, 3-[2-(cis-6-Methoxy-2,3,3a,4,5,9b-hexahydro-[1H]-benz[e]isoindol-1-yl)ethyl]-benzo[g]quinazoline-2,4(1H,3H):dione hydrochloride]",7.43
12,"COC(=O)c1ccc2sc3c(=O)n(CCN4C[C@@H]5CCc6c(OC)cccc6[C@@H]5C4)c(=O)[nH]c3c2c1 [Example 44, 3-[2-((3aR,9bR)-cis-6-Methoxy-2,3,3a,4,5,9b-hexahydro-[1H]-benz[e]isoindol-1-yl)ethyl]-[1]-8-carbomethoxy-benzothieno[3,2-d]pyrimidine-2,4(1H,3H)-dione hydrochloride]",8.09
13,"COc1cccc2c1CC[C@H]1CN(CCn3c(=O)[nH]c4c(sc5ccncc54)c3=O)C[C@@H]21 [Example 38, 3-[2-((3aR,9bR)-cis-6-Methoxy-2,3,3a,4,5,9b-hexahydro-[1H]-benz[e]isoindol-1-yl)ethyl]1-pyrido[3',4':4,5]thieno[3,2-d]pyrimidine-2,4(1H,3H)-dione dihydrochloride]",9.75
14,"COc1cccc2c1CC[C@H]1CN(CCn3cnc4c([nH]c5ccccc54)c3=O)C[C@@H]21 [Example 66, 3-2-((3aR,9bR)-cis-6-Methoxy-2,3,3a,4,5,9b-hexahydro-[1H]-benz[e]isoindol-1-yl)ethyl]-1H-pyrimido[5,4-b]indole-4(1H,3H)-one hydrochloride]",9.71
15,"COc1cccc2c1CC[C@H]1CN(CCn3c(=O)[nH]c4c(sc5ccc(C#N)cc54)c3=O)C[C@@H]21 [Example 43, 3-[2-((3aR,9bR)-cis-6-Methoxy-2,3,3a,4,5,9b-hexahydro-[1H]-benz[e]isoindol-1-yl)ethyl]-[1]-8-cyano-benzothieno[3,2-d]pyrimidine-2,4(1H,3H)-dione hydrochloride]",8.44
16,"COc1cccc2c1CC[C@H]1CN(CCn3c(=O)[nH]c4c(oc5ccccc54)c3=O)C[C@@H]21 (relative stereo) [Example 3, 3-[2-(cis-6-Methoxy-2,3,3a,4,5,9b-hexahydro-1H]-benz[e]isoindol-1-yl)ethyl]-benzofuro[3,2-d]pyrimidine-2,4(1H,3H)-dione hydrochloride]",8.4
17,"COc1cccc2c1CC[C@H]1CN(CCn3c(-c4ccccc4)nc4c(sc5ccccc54)c3=O)C[C@@H]21 (relative stereo) [Example 30, 3-[2-(cis-6-Methoxy-2 3 3a,4,5,9b-hexahydro-[1H]-benz[e]isoindol-1-yl)ethyl]-2-phenyl-[1]benzothieno[3,2-d]-4(1H,3H)-one hydrochloride]",7.06
18,"O=c1[nH]c2c(sc3ncccc32)c(=O)n1CCN1C[C@@H]2CCc3c(ccc4c3OCO4)[C@@H]2C1 (relative stereo) [Example 111, hydrochloride]",8.00
19,"CCn1c(=O)n(CCN2C[C@@H]3CCc4c(OC)cccc4[C@@H]3C2)c(=O)c2sc3nccnc3c21 [Example 98, hydrochloride]",9.39
20,"COc1cccc2c1CC[C@H]1CN(CCn3c(=O)[nH]c4c(ccc5cnccc54)c3=O)C[C@@H]21 [Example 84, hydrochloride]",8.99
21,"COc1cccc2c1CC[C@H]1CN(CCn3c(=O)[nH]c4c(sc5c(OC)ccnc54)c3=O)C[C@@H]21 [Example 65, dihydrochloride]",8.75
22,"COc1cccc2c1CC[C@H]1CN(CCn3c(=O)[nH]c4c(sc5cc(C(F)(F)F)ccc54)c3=O)C[C@@H]21 [Example 32, 3-[2-((3aR,9bR)-cis76-Methoxy-2,3,3a,4,5,9b-hexahydro-[1-benz[e]isoindol-1-yl)ethyl]-7-trifluoromethyl[1]benzothieno[23-d]pyrimidine-2,4(1H,3H)-dione hydrochloride]",7.46
23,"COc1cccc2c1CC[C@H]1CN(CCn3c(=O)[nH]c4c([nH]c5ccncc54)c3=O)C[C@@H]21 [Example 97, hydrochloride]",9.66
24,"COc1cccc2c1CC[C@H]1CN(CCn3c(=O)[nH]c4c(ccc5cccnc54)c3=O)C[C@@H]21 [Example 83, hydrochloride]",8.43
25,"COc1cccc2c1CC[C@H]1CN(CCn3c(=O)c4sc5nccnc5c4n(Cc4ccccc4)c3=O)C[C@@H]21 [Example 96, hydrochloride]",7.46
26,"COc1cccc2c1CC[C@H]1CN(CCn3cnc4c(sc5nccnc54)c3=O)C[C@@H]21 [Example 71, 3-[2-(cis-(3.aR,9bR)-6-Methoxy-2,3 .,3a,4,5,9b-hexahydro-[1H]-benz[e]isoindol-1-yl)ethyl]-pyrazino[2',3':4,5]thieno[3,2-d]pyrimidine-4(1H,3H)-one hydrochloride]",9.21
27,"COc1cccc2c1CC[C@H]1CN(CCn3c(=O)[nH]c4c(sc5ccc(Cl)cc54)c3=O)C[C@@H]21 [Example 67, hydrochloride]",8.98
28,"COc1cccc2c1CC[C@H]1CN(CCn3c(=O)[nH]c4c(sc5ccc(C(N)=O)cc54)c3=O)C[C@@H]21 [Example 46, 3-[2-((3aR,9bR)-cis-6-Methoxy-2,3,3a.4,5,9b-hexahydro-[1H]-benz[e]isoindol-1-yl)ethyl]-[1]-8-carboxamido-benzothieno[3,2-d]pyrimidine-2,4(1H,3H)-dionehydrochloride]",9.61
29,"COc1cccc2c1CC[C@H]1CN(CCn3c(=O)c4sc5cccnc5c4n(C)c3=O)C[C@@H]21 [Example 61, dihydrochloride]",9.5
